Measurements from article PMC4183140 (Journal of medicinal chemistry, 2009).

Tested on: 1A9 ovarian cancer cells
Assay: Anti-proliferative activity in 1A9 ovarian cancer cells
Type: cell-based
Conditions: for Antiproliferative activity (in words): antiproliferative assays, highest concentration tested 50 μM

Row | SMILES | Antiproliferative activity (in words) | Fold more active than epi-tubulysin V in the antiproliferative assays (antiproliferative assays (1A9 and MCF-7), relative to epi-tubulysin V)
1 | CC[C@H](C)[C@H](NC(=O)[C@@H](C)N(C)C)C(=O)N[C@H](CC(=O)c1nc(C(=O)N[C@@H](Cc2ccccc2)C[C@H](C)C(=O)O)cs1)C(C)C [Compound 21] | not active | –
2 | CC[C@H](C)[C@H](NC(=O)[C@@H](C)N(C)C)C(=O)N[C@H](CC(=O)c1nc(C(=O)N[C@H](CCC(=O)O)Cc2ccccc2)cs1)C(C)C [Compound 22] | sub-micromolar activity | –
3 | CC[C@H](C)[C@H](NC(=O)[C@H]1CCCCN1C)C(=O)N[C@H](C[C@@H](O)c1nc(C(=O)N[C@@H](Cc2ccccc2)C[C@H](C)C(=O)O)cs1)C(C)C [Compound 4, tubulysin V] | – | 30–45 fold
